Read-outs that look alike come from different tables or passages of the source. Non-standard residues stand in square brackets, D forms with d. No end group written: not given here. pS = N[C@@H](COP(=O)(O)O)C(=O)O
Assays:
[1] = tested on: Streptococcus mutans Ingbritt; assay: Antibacterial planktonic assay (microplate growth assay); format: cell-based; details: for MIC: pH 7.20, tested singly or in combination with a 1:1 ratio of zinc or calcium; for inhibition of S. mutans growth: growth pH 7.20, up to concentrations of 300 μM
Description: The oral opportunistic pathogen Streptococcus mutans Ingbritt was used in this study as an indicator strain. The antibacterial assay was conducted in 96 well plates and bacterial growth continuously monitored over 40 h, as previously described (Malkoski et al., 2001). Briefly, bacteria were cultured in Todd Hewitt Broth (36.4 g/l) containing Yeast extract (5.0 g/l) and 100 mM potassium phosphate with a pH of 6.3 or 7.2. The bacterial inocula were prepared by diluting exponentially growing cells in growth medium to give 2.7×10^4 viable cells/ml. In the bacterial growth assays test wells contained κ-casein-A(106-169) or κ-casein-B(106-169) at concentrations between 20 and 120 μM. these peptides were also tested in combination with zinc or calcium ions to give ratios of […]:divalent metal ion of 1:1 to 1:4. Synthetic […]κ-casein-A(138-158) and […]κ-casein-B(138-158) peptides were also tested in this assay. The plates were incubated at 37° C. and growth determined by measuring optical density (OD) at 620 nm using an iEMS microplate reader (Labsystems, OY Research Technologies Division).

plaque [2] = details: double blind crossover trial, Addy et al., 1980; cited from earlier work
[3] = tested on: S. mutans Ingbritt biofilm; assay: Viability of S. mutans cultured as a biofilm in constant depth film fermenter (CDFF); format: cell-based, Streptococcus mutans
Description: A constant depth film fermenter (CDFF: Wimmpenny, Cardiff University, UK) was used for biofilm formation. The CDFF consists of a stainless steel disc rotating at a constant speed of 3 rpm containing 15 polytetrafluoroethylene (PTFE) pans each of which contain 5 plugs of 4.5 mm in diameter. The plugs were set to 0.4 mm below the surface of the steel disc. Inbuilt scrapers were used to maintain a constant biofilm depth of 0.4 mm. The scrapers are attached so that the stainless steel disc rotates under them; the scrapers are spring loaded so that they are pressed down against the pans. An anaerobic atmosphere was maintained in the CDFF by continuous gassing with 5% CO2 in N2. The CDFF was housed in a modified CO2 incubator, which was used to maintain a constant culture temperature of 37° C. A S. mutans Ingbritt batch culture in Todd Hewitt (35.4 g/l), Yeast Extract (8 g/L) broth (THYE) in exponential growth phase was used to inoculate the CDFF at a flow rate of 30 ml/h for 5 h. The growth media, THYE containing 0.1% (w/v) sucrose, was then pumped into the CDFF at a constant flow rate of 40 ml/h.
At specified times prior to and after treatment with solutions, plugs were removed from the CDFF, washed to remove planktonic bacteria and viable counts were performed to determine bacterial numbers. To assess the effect on cell viability of various solutions growth media addition to the CDFF was suspended for 10 min and replaced by the solution at a flow rate of 30 ml/h. After 10 min growth media addition was resumed. Solutions tested in the CDFF were: 2 mM Tris-HCl pH6.0; 10 mg/ml Kappacin preparation (see above) in 2 mM Tris-HCl pH 6.0; 10 mg/ml Kappacin preparation (see above) and 20 mM ZnCl2 in 2 mM Tris-HCl pH 6.0; 20 mM ZnCl2 in 2 mM Tris-HCl pH 6.0; 2 mM ZnCl2 in 2 mM Tris-HCl pH 6.0 and 0.05% chlorhexidine digluconate in deionized water.

[4] = tested on: supragingival dental plaque; assay: Clinical antiplaque trial, mouthrinse as only oral hygiene, Silness and Loe Plaque Index; format: in vivo, human
From the text: Ten subjects were recruited for the double-blind, cross-over study. Subjects were recruited from undergraduate students enrolled at the School of Dental Science, The University of Melbourne. The group consisted of 6 females and 4 males with a mean age of 21 years. Subjects were examined prior to the commencement of the trial and all were gauged to be of good health, having dentitions without unrestored carious lesions or evidence of moderate to severe gingivitis. The subjects had not used any dentifrices containing antimicrobial agents prior to commencement of the trial. Approval was obtained from the Human Research Ethics Committee of the University of Melbourne.
At the commencement of the trial, the subjects were instructed to cease all other forms of daily oral hygiene practices and to solely rely on the use of the allocated mouthrinse solution. Four solutions were tested as mouthrinses in this investigation: Solution A: Deionized water. B: 1% (w/v) Kappacin preparation in deionized water. C: 20 mM ZnCl in deionized water. D: 1% (w/v) Kappacin preparation and 20 mM ZnCl in deionized water. The pH of all solutions was adjusted to 6.9±0.1 using KOH. Subjects were instructed to rinse three times daily: morning, mid-day and evening with 15 ml of solution for a duration of one minute. Each trial session was for four days with a clinical evaluation at the end of the trial. The Silness and Loe Plaque Index (PI) was used to evaluate plaque (Silness and Loe, 1964). The gingival area of each tooth surface (distal, buccal, mesial and lingual) was given a score from 0-3. All teeth excluding third molars were scored at the conclusion of the trial. Following each trial session the subjects resumed their normal oral hygiene habits for a minimum of seven days prior to the next trial. Data were analysed using the nonparametric Wilcoxon rank test.

plaque [5] = details: mouthrinse, Silness and Loe plaque index, Giertsen et al. (1988); cited from earlier work
[6] = tested on: Streptococcus mutans Ingbritt; details: S. mutans, pH 6.28; previous study (Malkoski et al., 2001); cited from earlier work

[Ca+2].[Cl-].[Cl-] [CaCl2]
MIC ([1]; S. mutans): NI (No inhibition at concentrations up to 1 mM) | effect on S. mutans growth ([1]; alone, at concentrations up to 1 mM): no effect

CC[C@H](C)[C@H](NC(=O)[C@@H](NC(=O)[C@H](CCC(=O)O)NC(=O)[C@@H]1CCCN1C(=O)[C@H](COP(=O)(O)O)NC(=O)[C@H](C)NC(=O)[C@H](CCC(=O)O)NC(=O)[C@H](CC(C)C)NC(=O)[C@@H](NC(=O)[C@H](C)NC(=O)[C@@H](NC(=O)[C@@H](NC(=O)[C@H](CO)NC(=O)[C@H](CCC(=O)O)NC(=O)[C@@H](NC(=O)[C@H](C)N)C(C)C)[C@@H](C)O)C(C)C)[C@@H](C)O)C(C)C)C(=O)N[C@@H](CCC(=O)O)C(=O)N[C@@H](CO)C(=O)N1CCC[C@H]1C(=O)N1CCC[C@H]1C(=O)N[C@@H](CCC(=O)O)C(=O)O [Ser(P)^149κ-casein-B(138-158), Ala Val Glu Ser Thr Val Ala Thr Leu Glu Ala Ser(P) Pro Glu Val Ile Glu Ser Pro Pro]
calculated MIC ([1]; S. mutans, growth pH 6.28, microplate growth assay): 44 µM | inhibition of S. mutans growth [1]: no inhibition

O=C([O-])CC(O)(CC(=O)[O-])C(=O)[O-].O=C([O-])CC(O)(CC(=O)[O-])C(=O)[O-].[Zn+2].[Zn+2].[Zn+2] [Zinc citrate]
reduction of plaque accumulation (Turesky plaque index) (plaque [2]): 5-8%

[Cl-].[Cl-].[Zn+2] [ZnCl2]
MIC ([1]; S. mutans): 200 µM | decrease in viable cell counts ([3]; 20 mM ZnCl2 in 2 mM Tris-HCl pH 6.0): 92% | reduction of viable count ([3]; 5 ml of 2 mM ZnCl2 in 2 mM Tris-HCl pH 6.0): ~60% | plaque accumulation relative to water or other treatments (Wilcoxon rank test, posterior teeth plaque index scores) ([4]; four days mouthrinse as only oral hygiene): significantly (P<0.05) reduced | decrease in mean whole mouth plaque index scores ([4]; four days, 20 mM zinc chloride mouthrinse): 6% | decrease in the mean Plaque Index Score of posterior teeth compared with water control ([4]; four days, 15 ml rinse three times daily, 1% (w/v) Kappacin and/or 20 mM ZnCl2, pH 6.9): 9% | increase in the tooth surfaces with no plaque compared with a water control (plaque [5]): 9%

[H]/N=C(\N/C(=N/[H])NCCCCCCNC(=N)NC(=N)Nc1ccc(Cl)cc1)Nc1ccc(Cl)cc1 [chlorhexidine digluconate]
decrease in S. mutans cell viability [3]: 48% | time after treatment with no significant difference to pre-treatment viability ([3]; 0.05% (w/v) solution): 3.5 h

AVESTVATLED[pS]PEVIESPP [Ser(P)^149κ-casein-A(138-158)]
MIC ([1]; S. mutans): NI (No inhibition at concentrations up to 1 mM) | inhibition of S. mutans growth [1]: no inhibition | MIC [6]: 26 µM
